Test system: ApoE^−/− mice
Assay: Serum inflammatory factor levels in ApoE−/− mice (ELISA)
Type: in vivo
Details: 5 mg/kg intragastrically, 12 weeks, HFD
Protocol: 6-week-old male C57/BL6 ApoE^−/− mice were fed on normal chaw diet for one week. The mice were randomly divided into three groups (control group, high-fat diet model group, and treatment group, 12 mice per group) according to the body weight. From 7-week-old, the high-fat diet model group and the treatment group were fed on a high fat diet (HFD) (0.15% cholesterol and 20% fat), and the control group was fed on normal chow diet. The treatment group (R3) mice were administered intragastrically with TR3 (5 mg/kg). The control group and the high-fat diet model group mice were intragastrically administered with sodium carboxymethylcellulose (CMC-Na) solution. After 12 weeks of administration, all mice were fasted overnight. The blood sample was taken from the retro-orbital plexus, collected in a EP tube, and then centrifuged for 15 min (2500 rpm). The centrifuged serum (upper layer) was transferred to new EP tubes (divided into two aliquots) and stored at −20° C. for further use. The mice were fixed, and the skin was cut open along the midline of the abdomen to the neck. The abdominal cavity was cut open to collect the fresh liver tissue. The Liver tissue was put into 3 freezing tubes, and then immediately put into liquid nitrogen for subsequent detection of liver lipid detection and extraction of RNA and protein. The thorax was cut open to expose the heart. The heart was perfused with 10 ml PBS, and then fixed by perfusion with 4% paraformaldehyde solution until the liver turned white. The fixed liver was taken out and placed in a six-well plate containing 4% paraformaldehyde solution for further fixation. The full-length aorta (from the ascending aorta to the common iliac arteries) was isolated and placed in a six-well plate containing 4% paraformaldehyde solution. The aorta was fixed in 4% paraformaldehyde solution overnight and then stored in 20% sucrose solution at 4° C.
The levels of IL-1β, IL-18, IL-6, TNF-α and IL-10 in the serum of ApoE^−/− mice were measured by using the corresponding ELISA kits (Nanjing Sen Bei Jia Biotechnology Co., Ltd., Nanjing, China). Standard dilution and addition: the standard was diluted by gradient, and 10 wells on the coated ELISA plate were set for standard addition. Sample addition: blank wells and sample wells were set separately. The sample wells of the coated ELISA plates were first added with 40 μL sample diluent, and then added 10 μL sample (the final dilution of the sample is 5-fold). […] Assay detection: the absorbance at 450 nm of each well was read with the absorbance at 450 nm of the blank well as zero, and this process was performed within 15 min after the stop solution was added.

SMILES: c1ccc2c(c1)CN1CCc3c([nH]c4ccccc34)C1=N2 [TR3, 5,7,8,13-tetrahydroindolo[2′,3′:3,4]pyrido[2,1-b]quinazoline]
- level of IL-1β in mouse serum: decreased the levels of IL-1β, IL-18 and IL-6 significantly
- level of IL-6 in mouse serum: decreased the levels of IL-1β, IL-18 and IL-6 significantly
- level of IL-18 in mouse serum: decreased the levels of IL-1β, IL-18 and IL-6 significantly
- level of TNF-α in mouse serum: decreased the levels of IL-1β, IL-18 and IL-6 significantly and the level of TNF-α slightly

— US12590093B2, “Indolo[2′,3′:3,4]pyrido[2,1-b]quinazoline compound and use thereof” (INSTITUTE OF MEDICINAL BIOTECHNOLOGY CHINESE ACADEMY OF …, priority 2019, dated 2026)
